# Patent US4543256A, “(-)-10,1L Methylenedioxy-N-N-propylnoraporphine and methods employing it for inhibiting the effects of epileptic seizures and for prevention and treatment of duodenal ulcers” (Northeastern University, priority 1982, dated 1985)
# Where a name gives a salt, the structure may show the parent alone. Read-outs that look alike come from different tables or passages of the source.
# Legend:
# [1] = tested on: duodenal ulcers; assay: Cysteamine-induced duodenal ulcer in the rat; conditions: for Duodenal Ulcer Intensity (Scale: 0-3): control 1.8; for Duodenal Ulcer Incidence (Positive/Total): control 10/12
# [2] = tested on: rats; assay: Stereotyped behavior of rats (rating scale; score, onset and duration); type: in vivo, rat (male Sprague-Dawley); conditions: for Stereotypy (percent of the maximum possible score): 100%=18.0, placebo 4.4±2.5%, N=3 to 6; for Stereotypy Score: rated one hour, maximum 18, N=6, mean ±SEM; for Duration of Effect (stereotypy): complete when scores ≤3; for stereotypy scores: NPA 3 mg/kg i.p., N=6
# Protocol: (§1) Male Sprague-Dawley (Charles River Labs.) rats (initially 175-200 g) were housed four per cage, with free access to food and water, under controlled lighting (on 7:00 a.m. to 7:00 p.m.), constant temperature 21°-23° C. and controlled humidity (40-50%). Aporphines were administered, as described below, freshly dissolved in 1 mM citric acid mixed with 0.9% (w/v) saline (1:4, vols.); this solvent was also used as a vehicle ("placebo") control. Haloperidol was given in the same medium; 2-diethyl aminoethyl-2,2 diphenylvalerate HCl (SKF-525A) was given in saline.
# Stereotyped behavior was evaluated by a trained observer according to a rating scale method reported previously (Campbell and Baldessarini, 1981a). Briefly, the ratings were as follows: 0, no stereotypy, normal locomotion; 1, discontinuous sniffing, reduced locomotion; 2, continuous sniffing, only periodic exploration; 3, continuous sniffing, mouth movements, infrequent, exploratory activity, Ratings were made each 10 min. by observation for 30 sec, typically for 60 min. (maximum score=18.0/hour).
# (§2) In all experiments except those which evaluated the time-course of drug effects, rats were given an injection of vehicle and then allowed to rest for 15 min. to adapt to nonspecific arousal effects, prior to a second injection of test agent (or placebo) and immediate behavioral testing. Behavioral data were evaluated by Student's t-test and are always expressed as mean ±SEM.
# Data are mean values ±SEM for N=6 rats per group given doses of each aporphine (1mg/kg/, or approximately 3 umole/kg) by orogastric intubation (P.O.), or subcutaneous (S.C.) or intraperitoneal (I.P.) injection. Stereotypy was rated for one hour as described in Methods and duration is defined as complete when scores diminished to ≤3 (out of a maximum possible score of 18).
# Data are mean values ±SEM (N=4 to 8 rats per condition). […] N.D. indicates "not determined." (*) Indicates a significant difference by t-test between control and oxidase inhibitor-pretreated rats (p<0.01).
# Stereotypy was rated for 60 min as described in Methods. Data are means SEM (stereotypy scores, when 18=maximum in 1 hour) for N=6 rats per group; (*) indicates p<0.0001 by t test.
# Data are mean values ±SEM (N=3 to 6 rats per condition) for effects of seven aporphine compounds (R=substituents, keyed to the structure above). Full chemical names for all compounds are provided in Methods. […] Data are provided for a dose of 10 mg/kg (i.p.), although doses of 1 and 5 mg/kg were also tested.
# [3] = tested on: rats; assay: Locomotor (general motor) activity, electronic activity monitor; type: in vivo, rat (male Sprague-Dawley)
# Protocol: as §1
# Locomotor activity was evaluated by use of a printing electronic activity monitor (EAM, Stoelting Co., Chicago, IL) within a sound-attenuated chamber, typically for 60 min., as described previously (Stewart, Campbell, Sperk and Baldessarini, 1979, Psychopharmacology 60 281-289; Campbell and Baldessarini, 1981a, Psychopharmacology 73:219-222.
# as §2
# Data are mean values ±SEM (N=4 to 8 rats per condition). Animals were pretreated with SKF-525A (40 mg/kg, i.p.) or its vehicle 30 min before MDO-NPA (in the doses noted, from 0 to 3 mg/kg, i.p.). Activity was then monitored electronically for an hour after the low doses of MDO-NPA (data in counts/hour), or rated for stereotypy every 10 min for an hour after higher doses. N.D. indicates "not determined." (*) Indicates a significant difference by t-test between control and oxidase inhibitor-pretreated rats (p<0.01).
# Data are mean values ±SEM (N=3 to 6 rats per condition) for effects of seven aporphine compounds (R=substituents, keyed to the structure above). Full chemical names for all compounds are provided in Methods. Ratings are expressed as percent of the maximum possible score (100%)=18.0) of stereotypy (Placebo-injected controls yielded scores of 4.4±2.5%); and as the percent of control locomotor activity (100%=430±86 counts/hr). Data are provided for a dose of 10 mg/kg (i.p.), although doses of 1 and 5 mg/kg were also tested.
# [4] = in vivo, cited from earlier work
# [5] = tested on: Adenylate cyclase; assay: Adenylate cyclase stimulation (cAMP) in rat striatal homogenates; type: biochemical; conditions: 50 μM; control (no addition) 2.38 ± 0.14; p < 0.01; N=4
# Description: of cAMP in rat striatal homogenates; inhibition of binding of
# [6] = tested on: gastric acid output; conditions: rats given cysteamine or propionitrile; previous studies; cited from earlier work
# [7] = 10 mg/kg i.p.; 100%=430±86 counts/hr; N=3 to 6
# [8] = 50 μg/100g s.c. once daily seven days
# [9] = 100 μg/100g s.c. once daily seven days
# [10] = SKF-525A 40 mg/kg i.p. alone (MDO-NPA dose 0)
molecule,measurement,setting,value
"CC(C)(C)C1(O)CCN2CC3c4ccccc4CCc4cccc(c43)C2C1 (single isomer, unassigned; (+)) [(+)-butaclamol, reference compound]",effect on the beneficial effect of NPA and MDO-NPA,[1]; combined with NPA or MDO-NPA,reversed the beneficial effect of NPA and MDO-NPA
same,effect on cysteamine-induced duodenal ulcers,[1]; rats given cysteamine,aggravated the experimental duodenal ulcers
"CCCCCC1(C)Oc2ccc3c(c2O1)-c1cccc2c1C(C3)N(CCC)CC2.Cl (single isomer, unassigned; (-)) [Methyl-pentyl-MDO--NPA, (-) 10,11-Heptylidene-2-dioxy-N-n-propylnoraporphine-HCl]",Stereotypy (percent of the maximum possible score),[2]; 10 mg/kg i.p.,11.1 ± 5.7%
same,Locomotion (percent of control locomotor activity),[3]; [7],86.1 ± 22.3%
CCCN1CCc2cccc3c2[C@H]1Cc1c([N+](=O)[O-])cc2c(c1-3)OCO2 [8-Nitro-MDO--NPA],Stereotypy (percent of the maximum possible score),[2]; 10 mg/kg i.p.,4.4 ± 2.5%
same,Locomotion (percent of control locomotor activity),[3]; [7],74.4 ± 9.8%
"CN1CCc2cccc3c2[C@H]1Cc1ccc(O)c(O)c1-3 [APO, apomorphine, reference compound]",Stereotypy Score,[2]; 1 mg/kg I.P.,16.5 ± 2.4
same,Duration of Effect (stereotypy),[2]; 1 mg/kg I.P.,72 ± 12 min
same,Stereotypy Score,[2]; 1 mg/kg P.O.,0
same,Duration of Effect (stereotypy),[2]; 1 mg/kg P.O.,0 min
same,Stereotypy Score,[2]; 1 mg/kg S.C.,17.5 ± 0.4
same,Duration of Effect (stereotypy),[2]; 1 mg/kg S.C.,70 ± 5 min
same,dependence of duration of action on dose,[2]; i.p.,much less tendency for duration to increase with dose
same,minimal effective dose,"[3]; Rattus norvegicus, ip; read-out: dose producing increases in general motor activity",> 2 µmol/kg
same,motor activity at lower doses (below 2 μmoles/kg),[3]; i.p.,no significant effect
same,duration of action,[4],short duration of action
CN1CCc2cccc3c2[C@H]1Cc1ccc2c(c1-3)OCO2 [MDO-APO],Stereotypy,[2]; 10 mg/kg i.p.,weak and inconsistent stereotypy (not significant statistically)
same,behavioral effects after oral administration,[2]; 1 to 5 mg/kg oral,no significant behavioral effects
same,excitatory effects,[3]; 10 mg/kg i.p.,relatively weak and inconsistent excitatory effects
same,inhibition of locomotor activity,[3]; 10 mg/kg i.p.,significant effect (p 0.01 by t-test) to inhibit locomotor activity
"CCCN1CCc2cccc3c2[C@H]1Cc1ccc(O)c(O)c1-3 [NPA, N-n-Propylnorapomorphine, reference compound]",Stereotypy Score,[2]; 1 mg/kg I.P.,17.5 ± 1.0
same,Duration of Effect (stereotypy),[2]; 1 mg/kg I.P.,70 ± 10 min
same,Stereotypy Score,[2]; 1 mg/kg P.O.,0
same,Duration of Effect (stereotypy),[2]; 1 mg/kg P.O.,0 min
same,Stereotypy Score,[2]; 1 mg/kg S.C.,17.5 ± 0.8
same,Duration of Effect (stereotypy),[2]; 1 mg/kg S.C.,72 ± 6 min
same,stereotypy scores,[2]; controls (vehicle pretreated),17.4±0.2
same,stereotypy scores,[2]; oxidase-inhibited (SKF-525A 40 mg/kg i.p.),17.0±0.3
same,dependence of duration of action on dose,[2]; i.p.,much less tendency for duration to increase with dose
same,duration of stereotyped behavioral effects vs other agents,"[2]; i.p., for MDO-NPA at doses above 1 μmole/kg","about equal to, or slightly greater than that of APO"
same,Adenylate cyclase stimulation (cAMP),[5],5.67 ± 0.28 pmol/assay
same,minimal effective dose,"[3]; Rattus norvegicus, ip, read-out: dose producing increases in general motor activity",> 2 µmol/kg
same,motor activity at lower doses (below 2 μmoles/kg),[3]; i.p.,no significant effect
same,oral bioavailability,[4]; po,poor oral bioavailability
same,duration of action,[4],short duration of action
same,Duodenal Ulcer Intensity (Scale: 0-3),[1]; [8],1.1
same,Duodenal Ulcer Incidence (Positive/Total),[1]; [8],2/9
same,Duodenal Ulcer Intensity (Scale: 0-3),[1]; [9],0.9
same,Duodenal Ulcer Incidence (Positive/Total),[1]; [9],6/9
same,effect of a single high dose on duodenal ulcers,[1]; single high dose,active
"CCCC(C(=O)OCCN(CC)CC)(c1ccccc1)c1ccccc1 [SKF-525A, 2-diethyl aminoethyl-2,2 diphenylvalerate HCl, reference compound]",Stereotypy,[2]; [10],0
same,Activity,[3]; [10],422 ± 28 counts/hour
CC(C)C[C@H]1C(=O)N2CCC[C@H]2[C@]2(O)O[C@](NC(=O)[C@@H]3C=C4c5cccc6[nH]c(Br)c(c56)C[C@H]4N(C)C3)(C(C)C)C(=O)N12 [bromocriptine],effect on output of gastric acid,[6],diminished the output of gastric acid
CN1C[C@H](CC#N)C[C@@H]2c3cccc4[nH]c(Cl)c(c34)C[C@H]21 [lergotrile],effect on output of gastric acid,[6],diminished the output of gastric acid
"(-) 10, 11-Butylidene-2-dioxy-N-n-propylnoraporphine. HCl [Methyl-ethyl MDO--NPA]",Stereotypy,[2]; 10 mg/kg i.p.,weak stereotypic activity
same,duration of stereotypic activity,[2]; 10 mg/kg i.p.,about 60 min
same,onset of stereotypic activity delayed,[2]; 10 mg/kg i.p.,about 30 min
same,Stereotypy (percent of the maximum possible score),[2]; 10 mg/kg i.p.,31.5 ± 1.9%
